Consider two molecules from publication PMC10443802, “Targeting a xenobiotic transporter to ameliorate vincristine-induced sensory neuropathy” (JCI Insight, 2023).

Several values for one entry are separate records, joined by “and”; a condition that tells them apart may be missing. Identical values can stand only once.

Data set [1] has as its target T1, hOATP1B1 (Homo sapiens, UniProt Q9Y6L6).
T1 sequence (Q9Y6L6 1-691): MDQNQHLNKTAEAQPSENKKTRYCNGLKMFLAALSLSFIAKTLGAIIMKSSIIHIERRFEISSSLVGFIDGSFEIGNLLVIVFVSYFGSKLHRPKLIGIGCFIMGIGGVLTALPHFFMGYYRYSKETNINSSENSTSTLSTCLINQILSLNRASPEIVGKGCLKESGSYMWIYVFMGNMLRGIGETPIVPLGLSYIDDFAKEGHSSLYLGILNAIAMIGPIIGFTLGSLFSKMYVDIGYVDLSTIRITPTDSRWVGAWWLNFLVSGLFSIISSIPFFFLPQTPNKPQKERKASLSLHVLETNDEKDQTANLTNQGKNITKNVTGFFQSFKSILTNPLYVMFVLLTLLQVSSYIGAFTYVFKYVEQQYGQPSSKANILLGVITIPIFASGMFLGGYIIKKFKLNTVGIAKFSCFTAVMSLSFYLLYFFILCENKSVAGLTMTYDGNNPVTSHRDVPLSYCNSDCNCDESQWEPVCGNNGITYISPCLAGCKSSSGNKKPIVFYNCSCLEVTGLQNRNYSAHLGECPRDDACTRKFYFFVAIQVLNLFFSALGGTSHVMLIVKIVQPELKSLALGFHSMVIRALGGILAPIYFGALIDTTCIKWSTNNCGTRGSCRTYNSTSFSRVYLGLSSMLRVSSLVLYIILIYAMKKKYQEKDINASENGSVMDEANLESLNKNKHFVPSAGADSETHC
The data set can be described thus: EβG uptake in HEK293 cells overexpressing hOATP1B1. It is filed as in vitro ADME.

Data set [2] concerns the target T2, hOATP1B3 (Homo sapiens, UniProt Q9NPD5).
T2 sequence (Q9NPD5 1-702): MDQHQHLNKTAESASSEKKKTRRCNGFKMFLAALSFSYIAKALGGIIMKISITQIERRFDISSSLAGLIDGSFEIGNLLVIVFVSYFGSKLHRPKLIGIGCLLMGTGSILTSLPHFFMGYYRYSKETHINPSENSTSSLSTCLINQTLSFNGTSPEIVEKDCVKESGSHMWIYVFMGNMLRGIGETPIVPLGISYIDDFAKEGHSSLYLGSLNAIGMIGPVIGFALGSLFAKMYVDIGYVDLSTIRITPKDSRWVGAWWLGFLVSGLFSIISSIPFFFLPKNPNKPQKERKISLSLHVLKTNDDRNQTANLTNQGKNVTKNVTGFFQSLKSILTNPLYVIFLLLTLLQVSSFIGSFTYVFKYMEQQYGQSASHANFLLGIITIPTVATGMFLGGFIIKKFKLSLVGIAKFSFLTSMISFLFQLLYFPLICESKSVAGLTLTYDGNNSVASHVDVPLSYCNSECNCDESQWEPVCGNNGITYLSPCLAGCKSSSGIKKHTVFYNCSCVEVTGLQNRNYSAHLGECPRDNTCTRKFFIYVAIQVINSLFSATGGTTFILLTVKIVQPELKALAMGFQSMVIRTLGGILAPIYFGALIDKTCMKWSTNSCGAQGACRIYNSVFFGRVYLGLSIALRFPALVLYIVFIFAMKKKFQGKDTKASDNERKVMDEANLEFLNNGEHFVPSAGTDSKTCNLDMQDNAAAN
The data set can be described thus: EβG uptake in HEK293 cells overexpressing hOATP1B3. It is filed as in vitro ADME.

The target in another data set is T3, mOATP1B2 (Mus musculus, UniProt Q9JJL3).
T3 sequence (Q9JJL3 1-689): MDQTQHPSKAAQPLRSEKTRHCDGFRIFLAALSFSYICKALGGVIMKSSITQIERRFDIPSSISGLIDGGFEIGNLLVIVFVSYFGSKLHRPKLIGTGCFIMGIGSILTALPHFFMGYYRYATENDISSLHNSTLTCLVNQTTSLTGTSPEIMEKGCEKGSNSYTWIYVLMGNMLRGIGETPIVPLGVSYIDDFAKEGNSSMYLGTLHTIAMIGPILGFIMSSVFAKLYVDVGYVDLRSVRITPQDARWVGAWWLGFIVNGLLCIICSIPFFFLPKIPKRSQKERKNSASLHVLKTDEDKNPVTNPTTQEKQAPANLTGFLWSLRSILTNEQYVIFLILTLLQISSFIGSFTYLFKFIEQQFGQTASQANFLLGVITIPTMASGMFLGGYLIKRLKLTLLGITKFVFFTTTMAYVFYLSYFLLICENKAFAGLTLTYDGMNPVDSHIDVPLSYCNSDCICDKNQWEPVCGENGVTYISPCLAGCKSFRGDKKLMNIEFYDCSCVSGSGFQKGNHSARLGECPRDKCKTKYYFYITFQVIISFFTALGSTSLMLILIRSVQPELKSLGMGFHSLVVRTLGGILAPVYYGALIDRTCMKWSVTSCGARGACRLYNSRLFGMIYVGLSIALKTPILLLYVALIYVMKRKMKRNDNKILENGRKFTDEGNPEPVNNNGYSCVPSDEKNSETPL
The data set can be described thus: EβG uptake in HEK293 cells overexpressing mOATP1B2. It is filed as in vitro ADME. The method, then: DRG, sciatic and caudal nerves were prepared, stained with toluidine blue, and examined with a Zeiss Axioskop WideField Light Microscope, as described previously (10). Representative images were captured with a QIClick Digital CCD color camera. For DRG morphometrics, the somatic size was measured for each cell containing nucleolus, and at least 200 DRG neurons per animal were manually measured and analyzed with a computer-assisted image analyzer (ImageJ software, Bethesda, MD). For sciatic nerve, all myelinated fibers evaluable in the analyzed space were counted and the internal (axonal) and external (total) diameters of myelinated fibers were measured on at least 500 myelinated fibers/nerve. The histograms of g-ratio (axonal diameter/whole fiber diameter as a measure of myelination degree in each fiber) distribution were generated. An observer blinded to the group compositions performed all the morphometric determinations.
Cellular accumulation. Human embryonic kidney (HEK293) cells (ATCC) overexpressing OATP1B1, […]
After incubation, transport was halted by aspirating radiolabeled drug, and rinsing the cells three times with ice-cold 1X PBS. Total radioactivity originating from the substrates was measured by lysing the cells with 1N NaOH, neutralized with 2N HCL, and measuring total radioactivity by liquid scintillation counting using an LS 6500 Counter (Beckman). […]

For data set [3] the following is noted: cited from earlier work.
Data set [4] has as its target T1, hOATP1B1. The data set can be described thus: α-tocopherol uptake in HEK293 cells overexpressing hOATP1B1. It is filed as in vitro ADME.
Data set [5] addresses T2, hOATP1B3. The experiment in a line: Inhibition of EβG uptake in HEK293 cells overexpressing hOATP1B3.
In data set [6] the test system is OATP1B2. The data set can be described thus: Plasma level and DRG/plasma ratio of α-tocopherol in mice (biomarker of OATP1B2 function). It is filed as in vivo, mouse.
Data set [7] addresses T2, hOATP1B3. The experiment in a line: α-tocopherol uptake in HEK293 cells overexpressing hOATP1B3. It counts as in vitro ADME.
Data set [8] relates to OATP1B2. The data set can be described thus: Untargeted metabolomics of plasma and DRG, WT vs OATP1B2-deficient mice. It is filed as in vivo, mouse. The text has this: (A) Schematic overview of the untargeted metabolomics screen to discover an endogenous biomarker of OATP1B2. […] Positive fold change indicates higher plasma concentration in OATP1B2^–/– mice (n = 6 per group). […] (C) Volcano plot of differentially endogenous metabolites in untreated whole DRG samples of WT mice or OATP1B2^–/– mice. Negative fold change indicates lower DRG levels in OATP1B2^–/– mice (n = 6 per group). (D) Plasma levels and DRG/plasma ratios of α-tocopherol in WT mice or OATP1B2^–/– mice in secondary validation studies. […] Data are normalized to baseline levels observed in WT mice (n = 3 per group).

Regarding `C[C@]12CC[C@@H]3c4ccc(O)cc4CC[C@H]3[C@@H]1CC[C@@H]2O[C@@H]1O[C@H](C(=O)O)[C@@H](O)[C@H](O)[C@H]1O` [EβG, estradiol-17β-ᴅ-glucuronide], the “EβG uptake (% of vector)” value is 1260.82 % of vector and 1125.55 % of vector and 1194.22 % of vector at hOATP1B1 [1]; 5469.07 % of vector and 5408.81 % of vector and 5929.51 % of vector on hOATP1B3 [2]; 2727.12 % of vector and 2435.39 % of vector and 2079.28 % of vector at mOATP1B2.

Consider `Cc1c(C)c2c(c(C)c1O)CC[C@@](C)(CCC[C@H](C)CCC[C@H](C)CCCC(C)C)O2` [α-tocopherol], for which, in data set [3], the “Share recovered in the liver” value is on record as “up to 90%”. The “α-tocopherol uptake (% of vehicle)” value was 88.8965% and 111.905% and 99.1984% on hOATP1B1 [4] (VC cells, control for hOATP1B1); 109.574% and 76.2241% and 88.2425% on hOATP1B1 [4] (cells overexpressing hOATP1B1); 86.9835% and 91.7117% and 121.305% and 85.9356% and 106.189% and 107.875% at hOATP1B3 [7] (VC cells, control for hOATP1B3); 213.78% and 147.762% and 148.702% and 127.524% and 133.603% and 184.662% on hOATP1B3 [7] (cells overexpressing hOATP1B3). The “Inhibition of transporter-mediated uptake of EβG” value on hOATP1B3 [5] was “can mediate inhibition of transporter-mediated uptake”. In addition, the “Level of α-tocopherol (% of wild-type)” value in the data set on OATP1B2 [6] (DRG, OATP1B2(-/-) mice) is 28.1345 % of wild-type and 39.8965 % of wild-type and 39.7351 % of wild-type and 42.7289 % of wild-type and 36.0477 % of wild-type and 32.6784 % of wild-type; with OATP1B2 [6] (DRG, Wild-type mice) it was 86.7441 % of wild-type and 109.645 % of wild-type and 120.39 % of wild-type and 114.671 % of wild-type and 77.0519 % of wild-type and 91.498 % of wild-type; with OATP1B2 [6] (Plasma, OATP1B2(-/-) mice) it was 240.656 % of wild-type and 154.285 % of wild-type and 188.158 % of wild-type and 206.445 % of wild-type and 170.946 % of wild-type and 257.161 % of wild-type; with OATP1B2 [6] (Plasma, Wild-type mice), 128.573 % of wild-type and 75.6647 % of wild-type and 109.778 % of wild-type and 78.7903 % of wild-type and 110.315 % of wild-type and 96.8791 % of wild-type. In addition, the “Level of α-tocopherol (% of wild-type baseline), relative DRG/plasma ratio” value in the data set on OATP1B2 [6] (KO (OATP1B2-/-) mice) was 39.9993 % of wild-type baseline and 37.2252 % of wild-type baseline and 46.6384 % of wild-type baseline; with OATP1B2 [6] (WT mice, baseline), 92.6568 % of wild-type baseline and 110.888 % of wild-type baseline and 96.4551 % of wild-type baseline. Further, the “Level of α-tocopherol (% of wild-type baseline), DRG/Plasma Ratio” value is 39.9993% and 37.2252% and 46.6384% with OATP1B2 [6] (KO mice); 92.6568% and 110.888% and 96.4551% in the data set with OATP1B2 [6] (WT mice). Further, the “Level of α-tocopherol (% of wild-type baseline), Plasma” value in the data set on OATP1B2 [6] (KO mice) is 178.006% and 210.63% and 138.224%; in the data set with OATP1B2 [6] (WT mice), 108.759% and 91.8035% and 99.4376%. Besides, on hOATP1B3 [7] (OATP1B3), the Substrate status result is “transported substrate of OATP1B3”. Also, the “Fold of Change KO/WT” value in the data set with OATP1B2 [8] (DRG samples, untreated OATP1B2-deficient (KO) vs wild-type mice) came out at 0.730; in the data set on OATP1B2 [8] (untreated plasma, OATP1B2-deficient (KO) vs wild-type mice), 2.03.
